Laboratory results taken from publication PMC4588880, “Three genes encoding AOP2, a protein involved in aliphatic glucosinolate biosynthesis, are differentially expressed in Brassica rapa” (Journal of Experimental Botany, 2015).

Experiments:
Test in all cases: HPLC of desulfoglucosinolates, conversion to 3-butenyl glucosinolate
Type in all cases: biochemical
Conditions in all cases: 10 mM 2-oxoglutarate, 10 mM ascorbate, 200 uM FeSO4, 200 mM sucrose, 28 °C, 4 h
[1] = molecular target: T1, BrAOP2.1 (Brassica rapa, UniProt M4EZD7)
T1 construct: full-length 439 aa, N-terminal thioredoxin/His fusion (pET-32a), E. coli BL21(DE3), Ni-NTA; chromosome A09
T1 sequence (M4EZD7 1-439): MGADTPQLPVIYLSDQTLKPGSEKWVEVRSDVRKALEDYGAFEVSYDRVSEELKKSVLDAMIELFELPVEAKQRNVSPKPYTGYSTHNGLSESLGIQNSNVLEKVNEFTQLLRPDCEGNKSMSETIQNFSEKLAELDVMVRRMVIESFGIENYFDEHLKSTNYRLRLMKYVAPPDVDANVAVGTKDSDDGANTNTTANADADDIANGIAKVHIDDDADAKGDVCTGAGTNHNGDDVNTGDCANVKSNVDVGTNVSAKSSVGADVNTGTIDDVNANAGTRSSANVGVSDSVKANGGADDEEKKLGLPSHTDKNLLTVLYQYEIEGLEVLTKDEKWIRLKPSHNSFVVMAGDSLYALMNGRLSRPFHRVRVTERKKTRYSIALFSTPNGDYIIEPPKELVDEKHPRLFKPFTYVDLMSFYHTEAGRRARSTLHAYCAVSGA

[2] = molecular target: T2, BrAOP2.3 (Brassica rapa, UniProt M4DPT0)
T2 construct: full-length 428 aa, N-terminal thioredoxin/His fusion (pET-32a), E. coli BL21(DE3), Ni-NTA; chromosome A02
T2 sequence (M4DPT0 1-428): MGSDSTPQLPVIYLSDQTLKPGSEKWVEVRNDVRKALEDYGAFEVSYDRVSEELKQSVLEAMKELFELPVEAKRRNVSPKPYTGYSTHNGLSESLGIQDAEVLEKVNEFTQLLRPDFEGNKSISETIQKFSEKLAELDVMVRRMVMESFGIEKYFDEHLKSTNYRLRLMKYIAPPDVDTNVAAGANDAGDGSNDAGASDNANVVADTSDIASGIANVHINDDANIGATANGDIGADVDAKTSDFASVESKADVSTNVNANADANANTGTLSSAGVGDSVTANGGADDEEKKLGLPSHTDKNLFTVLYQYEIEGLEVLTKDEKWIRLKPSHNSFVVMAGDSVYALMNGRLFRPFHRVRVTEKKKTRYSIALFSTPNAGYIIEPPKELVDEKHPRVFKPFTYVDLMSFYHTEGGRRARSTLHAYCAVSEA

[3] = molecular target: T3, BrAOP2.1 (Brassica rapa, UniProt M4EZD7, H308L)
T3 construct: full-length 439 aa, N-terminal thioredoxin/His fusion (pET-32a), E. coli BL21(DE3), Ni-NTA; chromosome A09
T3 sequence (M4EZD7 entry or part of it H308L): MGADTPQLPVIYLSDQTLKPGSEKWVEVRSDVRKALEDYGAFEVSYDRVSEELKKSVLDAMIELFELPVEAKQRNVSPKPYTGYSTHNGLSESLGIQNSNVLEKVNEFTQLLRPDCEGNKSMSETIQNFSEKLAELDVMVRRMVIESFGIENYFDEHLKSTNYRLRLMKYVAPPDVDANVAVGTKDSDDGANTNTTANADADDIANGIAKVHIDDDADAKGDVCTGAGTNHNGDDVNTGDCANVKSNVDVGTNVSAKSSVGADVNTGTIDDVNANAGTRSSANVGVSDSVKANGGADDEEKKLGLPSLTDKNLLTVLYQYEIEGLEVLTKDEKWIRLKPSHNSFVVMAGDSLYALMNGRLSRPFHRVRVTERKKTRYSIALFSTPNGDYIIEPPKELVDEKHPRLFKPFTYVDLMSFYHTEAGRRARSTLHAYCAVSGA

## C[S+]([O-])CCCC/C(=N/OS(=O)(=O)O)S[C@@H]1O[C@H](CO)[C@@H](O)[C@H](O)[C@H]1O (stereo partly drawn) [glucoraphanin]
[1]
  HPLC of desulfoglucosinolates, conversion to 3-butenyl glucosinolate: all three BrAOP2 proteins successfully catalysed the conversion of GRA to NAP
[2]
  HPLC of desulfoglucosinolates, conversion to 3-butenyl glucosinolate: all three BrAOP2 proteins successfully catalysed the conversion of GRA to NAP
[3]
  HPLC of desulfoglucosinolates, conversion to 3-butenyl glucosinolate: the purified H308L mutant enzyme was shown to still catalyse the conversion of GRA
